The test system of the first assay is Escherichia coli ATCC 25922. Nature of the assay: 50% growth inhibitory concentration (IC50) determination, Iso-Sensitest broth dilution. Format: cell-based. To be noted: Escherichia coli, ATCC25922, 16 h, strain Escherichia coli ATCC 25922; 10-point broth dilution, optical density at 600 nm over 16 h; read-out: Escherichia coli growth inhibition IC50. The gist of the method:
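Growth was tracked as optical density at 600 nm every 20 minutes for 16 h at 35±2° C. Compounds from DMSO stocks were serially diluted twofold over 10 points (e.g. 50–0.097 μM final) in Iso-Sensitest broth. Inhibition computed in log-phase growth to give IC50.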
Take `O=C1COc2ccc(N3CC(CCNCC4Cc5cncc(F)c5C4)OC3=O)nc2N1` (centres unmarked) [Example 288, 6-[5-[2-[(4-fluoro-6,7-dihydro-5H-cyclopenta[c]pyridin-6-yl)methylamino]ethyl]-2-oxo-1,3-oxazolidin-3-yl]-4H-pyrido[3,2-b][1,4]oxazin-3-one]: the IC50 is below 97.7 nM.
The same measure, in the same setting: the value for `Cc1ncc(F)c2c1CC(CCNCC1(CCO)CN(c3ccc4c(n3)NC(=O)CO4)C(=O)O1)C2` (centres unmarked) [Example 278, 6-[5-[[2-(4-fluoro-1-methyl-6,7-dihydro-5H-cyclopenta[c]pyridin-6-yl)ethylamino]methyl]-5-(2-hydroxyethyl)-2-oxo-1,3-oxazolidin-3-yl]-4H-pyrido[3,2-b][1,4]oxazin-3-one] was 1890 nM; that for `Cc1nccc2c1CC(CN1CCC3(CC1)CN(c1cnc4c(n1)NC(=O)CO4)C(=O)O3)C2` (centres unmarked) [Example 374, 6-[8-[(1-methyl-6,7-dihydro-5H-cyclopenta[c]pyridin-6-yl)methyl]-2-oxo-1-oxa-3,8-diazaspiro[4.5]decan-3-yl]-4H-pyrazino[2,3-b][1,4]oxazin-3-one] was 207 nM; that for `Cc1ncc(F)c2c1CC(CNCCC1CN(c3cnc4c(n3)NC(=O)CO4)C(=O)O1)C2` (centres unmarked) [Example 51, 6-[5-[2-[(4-fluoro-1-methyl-6,7-dihydro-5H-cyclopenta[c]pyridin-6-yl)methylamino]ethyl]-2-oxo-1,3-oxazolidin-3-yl]-4H-pyrazino[2,3-b][1,4]oxazin-3-one] was below 97.7 nM.
For the compound `N#Cc1cc(OCc2cnc[nH]2)cc2c1CC(CNCCC1CN(c3cnc4c(n3)NC(=O)CO4)C(=O)O1)C2` (centres unmarked) [Example 406, 6-(1H-imidazol-5-ylmethoxy)-2-[[2-[2-oxo-3-(3-oxo-4H-pyrazino[2,3-b][1,4]oxazin-6-yl)-1,3-oxazolidin-5-yl]ethylamino]methyl]-2,3-dihydro-1H-indene-4-carbonitrile; formic acid], the half-inhibitory concentration (IC50) came to 139 nM.
In the case of `N#Cc1nccc2c1CC(CNCCC1CN(c3ccc4c(n3)NC(=O)CO4)C(=O)O1)C2N` (racemic) [Example 133, rac-5,6-trans-5-amino-6-[[2-[2-oxo-3-(3-oxo-4H-pyrido[3,2-b][1,4]oxazin-6-yl)-1,3-oxazolidin-5-yl]ethylamino]methyl]-6,7-dihydro-5H-cyclopenta[c]pyridine-1-carbonitrile; formic acid], the IC50 is 1380 nM.
`Cc1nc(OCc2cc[nH]n2)c(F)c2c1CC(CNCCC1CN(c3cnc4c(n3)NC(=O)CO4)C(=O)O1)C2` (centres unmarked) [Example 415]: the IC50 came out at 221 nM.
For `Cc1ncc(F)c2c1CC(CN1CCC3(CC1)CN(c1cnc4c(n1)NC(=O)CO4)C(=O)O3)C2` (centres unmarked) [Example 258, 6-[8-[(4-Fluoro-1-methyl-6,7-dihydro-5H-cyclopenta[c]pyridin-6-yl)methyl]-2-oxo-1-oxa-3,8-diazaspiro[4.5]decan-3-yl]-4H-pyrazino[2,3-b][1,4]oxazin-3-one], the IC50 was 221 nM.
Regarding `Cc1nccc2c1CC(CNCCC1CN(c3ccc4c(n3)NC(=O)CO4)C(=O)O1)C2O` (racemic) [Example 43, 6-[2-oxo-5-[2-[[rac-(5,6-trans)-5-hydroxy-1-methyl-6,7-dihydro-5H-cyclopenta[c]pyridin-6-yl]methylamino]ethyl]-1,3-oxazolidin-3-yl]-4H-pyrido[3,2-b][1,4]oxazin-3-one; formic acid], the IC50 was determined as 4140 nM.
Regarding `CNC(=O)COc1cc(F)c2c(c1)CC(CN1CCC3(CC1)CN(c1cnc4c(n1)NC(=O)CO4)C(=O)O3)C2` (centres unmarked) [Example 309, 2-[[7-fluoro-2-[[2-oxo-3-(3-oxo-4H-pyrazino[2,3-b][1,4]oxazin-6-yl)-1-oxa-3,8-diazaspiro[4.5]decan-8-yl]methyl]-2,3-dihydro-1H-inden-5-yl]oxy]-N-methylacetamide], the IC50 is below 97.7 nM.
On the same count and under the same terms, the value for `NC(COc1cc(F)c2c(c1)CC(CNCCC1CN(c3ccc4c(n3)NC(=O)CO4)C(=O)O1)C2)C(=O)O` (centres unmarked) [Example 267, 2-Amino-3-[[7-fluoro-2-[[2-[2-oxo-3-(3-oxo-4H-pyrido[3,2-b][1,4]oxazin-6-yl)-1,3-oxazolidin-5-yl]ethylamino]methyl]-2,3-dihydro-1H-inden-5-yl]oxy]propanoic acid; formic acid] was below 97.7 nM; that for `N#Cc1cccc2c1CC(CNCCC1(CN)CN(c3ccc4c(n3)NC(=O)CO4)C(=O)O1)C2` (centres unmarked) [Example 243, 2-[[2-[5-(aminomethyl)-2-oxo-3-(3-oxo-4H-pyrido[3,2-b][1,4]oxazin-6-yl)-1,3-oxazolidin-5-yl]ethylamino]methyl]-2,3-dihydro-1H-indene-4-carbonitrile] was 199 nM; that for `CC(C)(N)COc1cc(C#N)c2c(c1)CC(CNCCC1CN(c3ccc4c(n3)NC(=O)CO4)C(=O)O1)C2` (centres unmarked) [Example 203, 6-(2-amino-2-methylpropoxy)-2-(((2-(2-oxo-3-(3-oxo-3,4-dihydro-2H-pyrido[3,2-b][1,4]oxazin-6-yl)oxazolidin-5-yl)ethyl)amino)methyl)-2,3-dihydro-1H-indene-4-carbonitrile; 2,2,2-trifluoroacetic acid] was below 97.7 nM.
Turning to `Cc1nc2c(c3c1CC(CNCCC1CN(c4ccc5c(n4)NC(=O)CO5)C(=O)O1)C3)CCN2C` (centres unmarked) [Example 416, 6-[5-[2-[(5,8-dimethyl-5,7-diazatricyclo[7.3.0.0^2,6]dodeca-1,6,8-trien-11-yl)methylamino]ethyl]-2-oxo-1,3-oxazolidin-3-yl]-4H-pyrido[3,2-b][1,4]oxazin-3-one], the half-maximal inhibitory concentration (IC50) turned out to be 95.1 nM.
With `O=C1COc2ncc(N3CC(CCNCC4Cc5cc(OCCn6ccnn6)cc(F)c5C4)OC3=O)nc2N1` (centres unmarked) [Example 344, 6-[5-[2-[[4-fluoro-6-[2-(triazol-1-yl)ethoxy]-2,3-dihydro-1H-inden-2-yl]methylamino]ethyl]-2-oxo-1,3-oxazolidin-3-yl]-4H-pyrazino[2,3-b][1,4]oxazin-3-one; formic acid], the 50% inhibitory concentration (IC50) came out at 202 nM.
Still for that read-out and setting: the value for `COc1cnc(Cl)c2c1CC(CNCCC1CN(c3ccc4c(n3)NC(=O)CO4)C(=O)O1)C2` (centres unmarked) [Example 57, 6-[5-[2-[(1-chloro-4-methoxy-6,7-dihydro-5H-cyclopenta[c]pyridin-6-yl)methylamino]ethyl]-2-oxo-1,3-oxazolidin-3-yl]-4H-pyrido[3,2-b][1,4]oxazin-3-one] was 328 nM; that for `Cc1ncc(F)c2c1CC(C(C)NCC[C@@H]1CN(c3cnc4c(n3)NC(=O)CO4)C(=O)O1)C2` (some centres unmarked) [Example 331] was below 97.7 nM; that for `O=C1COc2ccc(N3CC(CCCNC4Cc5ccc(F)cc5C4)OC3=O)nc2N1` (centres unmarked) [Example 12, 6-[5-[3-[(5-fluoro-2,3-dihydro-1H-inden-2-yl)amino]propyl]-2-oxo-1,3-oxazolidin-3-yl]-4H-pyrido[3,2-b][1,4]oxazin-3-one; formic acid] was 471 nM.
For the compound `NC1(COc2cc(Cl)c3c(c2)CC(NCCCC2CN(c4ccc5c(n4)NC(=O)CO5)C(=O)O2)C3)CC1` (centres unmarked) [Example 180, 6-[5-[3-[[6-[(1-aminocyclopropyl)methoxy]-4-chloro-2,3-dihydro-1H-inden-2-yl]amino]propyl]-2-oxo-1,3-oxazolidin-3-yl]-4H-pyrido[3,2-b][1,4]oxazin-3-one], the IC50 is below 97.7 nM.
With `Cc1ncc(Cl)c2c1CC(CNCCC1CN(c3cnc4c(n3)NC(=O)CO4)C(=O)O1)C2N` (racemic) [Example 263, 6-[2-oxo-5-[2-[[rac-5,6-trans-5-amino-4-chloro-1-methyl-6,7-dihydro-5H-cyclopenta[c]pyridin-6-yl]methylamino]ethyl]-1,3-oxazolidin-3-yl]-4H-pyrazino[2,3-b][1,4]oxazin-3-one], the IC50 came to 127 nM.
For the compound `Cc1nccc2c1CC(CNCCC1CN(c3ccc4c(n3)NC(=O)CO4)C(=O)O1)C2N` (racemic) [Example 130, 6-[2-oxo-5-[2-[(rac-5,6-trans-5-amino-1-methyl-6,7-dihydro-5H-cyclopenta[c]pyridin-6-yl)methylamino]ethyl]-1,3-oxazolidin-3-yl]-4H-pyrido[3,2-b][1,4]oxazin-3-one; formic acid], the IC50 is 868 nM.
`Cc1nc(C)c2c(c1F)CC(CNCCC1CN(c3cnc4c(n3)NC(=O)CO4)C(=O)O1)C2` (centres unmarked) [Example 352, 6-[5-[2-[(4-fluoro-1,3-dimethyl-6,7-dihydro-5H-cyclopenta[c]pyridin-6-yl)methylamino]ethyl]-2-oxo-1,3-oxazolidin-3-yl]-4H-pyrazino[2,3-b][1,4]oxazin-3-one; formic acid]: the IC50 is below 97.7 nM.
As to `CNC(=O)COc1cc(F)c2c(c1F)CC(CNCCC1CN(c3ccc4c(n3)NC(=O)CO4)C(=O)O1)C2` (centres unmarked) [Example 394, 2-[[4,7-difluoro-2-[[2-[2-oxo-3-(3-oxo-4H-pyrido[3,2-b][1,4]oxazin-6-yl)-1,3-oxazolidin-5-yl]ethylamino]methyl]-2,3-dihydro-1H-inden-5-yl]oxy]-N-methylacetamide], the IC50 is below 97.7 nM.
In the case of `O=C1COc2ccc(N3CC(CCCNC4Cc5cccc(F)c5C4)OC3=O)nc2N1` (centres unmarked) [Example 8, 6-[5-[3-[(4-fluoro-2,3-dihydro-1H-inden-2-yl)amino]propyl]-2-oxo-1,3-oxazolidin-3-yl]-4H-pyrido[3,2-b][1,4]oxazin-3-one; formic acid], the IC50 stood at 167 nM.
Regarding `CNC(=O)COc1cc(F)c2c(c1)CC(CNCCC1CN(c3ccc4c(n3)NC(=O)CS4)C(=O)O1)C2` (centres unmarked) [Example 74, 2-[[7-fluoro-2-[[2-[2-oxo-3-(3-oxo-4H-pyrido[3,2-b][1,4]thiazin-6-yl)-1,3-oxazolidin-5-yl]ethylamino]methyl]-2,3-dihydro-1H-inden-5-yl]oxy]-N-methylacetamide: formic acid], the IC50 was determined as 118 nM.

Staying with this assay, now noted: strain Escherichia coli ATCC 25922; 10-point broth dilution, optical density at 600 nm over 16 h; read-out: Escherichia coli growth inhibition IC50.
Take `N#Cc1cccc2c1CC(CN1CCC3(CN(c4ccc5c(n4)NC(=O)CO5)C(=O)O3)C(CN)C1)C2` (racemic) [Example 252, 2-[[rac-5,6-trans-6-(Aminomethyl)-2-oxo-3-(3-oxo-4H-pyrido[3,2-b][1,4]oxazin-6-yl)-1-oxa-3,8-diazaspiro[4.5]decan-8-yl]methyl]-2,3-dihydro-1H-indene-4-carbonitrile; formic acid]: the IC50 was determined as 156 nM.

Source of the values: US20230167127A1, “COMPOUNDS AND THEIR USE IN THE TREATMENT OF BACTERIAL INFECTION” (Hoffmann-La Roche Inc., priority 2020, published 2023).
